Measurements taken from patent publication US7993670B2, “Medical pad, and method for making and using” (General Wound Kare, Inc., priority 2003, dated 2011).

Test system: wound
Assay: Clinical experience: treatment of a patient's wound
[1] = after a week of daily 1% gentian violet solution

Excerpt: A change in the procedure was made. Instead of the direct application of the 1% gentian violet solution, a polyurethane pad, containing a reduced amount of gentian violet, mixed with glycerin and water, and then dried, was applied to the wound covered by the scab. Daily washings were continued and the scab was eventually debrided.

CN(C)c1ccc(C(=C2C=CC(=[N+](C)C)C=C2)c2ccc(N(C)C)cc2)cc1 [gentian violet] was tested, and the scab formation (1% gentian violet solution applied daily, wound washed daily with soap and water) was “scab was formed”, the “infection of the wound” value [1] was “no evidence of any infection” and the “size of the wound” value [1] was “remained the same”. The “staining of the painted wound area” value (liquid gentian violet solution at 1% strength painted on the wound daily) was “stained purple”.
